Test results from patent US6001882A (priority 1997, dated 1999).
Read-outs that look alike come from different tables or passages of the source.

Legend:
[1] = test system: PBMC obtained from a subject having CTCL; test: Induction of apoptosis in CTCL PBMC, TUNEL assay (Example 3); assay type: cell-based, human; settings: for percentage of PBMC which underwent apoptosis: CTCL, 18 h; for capability of inducing apoptosis: malignant leukocytes
[2] = test system: PBMC obtained from a normal human subject; test: Induction of apoptosis in normal PBMC, TUNEL assay (Example 3); assay type: cell-based; settings: for percentage of PBMC which underwent apoptosis: Normal, 18 h
malignant leukocytes = test: Flow cytometric sorting of apoptotic malignant leukocytes (dUTP-FITC incorporation); assay type: cell-based, human; settings: 10 μM hypericin or 0.462 μM 8-MOP, 18 h
Excerpt: FIG. 8, comprising Panels A-G, is a series of graphs which represent distributions of cell types within various cultures, as assessed by flow cytometric cell sorting, using incorporation of dUTP-FITC into fragmented DNA as a selection criterion. Malignant leukocytes which have not been induced to undergo apoptosis are represented as points which are located below an imaginary horizontal line located at approximately 2×10^1 on the vertical axis of each graph. Malignant leukocytes which have been induced to undergo apoptosis are represented as points which are located above an imaginary horizontal line located at approximately 3×10^1 on the vertical axis of each graph. […] The graph in Panel B corresponds to cells which were treated with hypericin and which were not illuminated. The graph in Panel C corresponds to cells which were treated with hypericin and which were illuminated using visible light. The graph in Panel D corresponds to cells which were treated with hypericin and which were illuminated using UV-A light. The graph in Panel E corresponds to cells which were treated with 8-MOP and which were not illuminated. The graph in Panel F corresponds to cells which were treated with 8-MOP and which were illuminated using visible light. The graph in Panel G corresponds to cells which were treated with 8-MOP and which were illuminated using UV-A light.
Hypericin-treated malignant leukocytes and 8-MOP-treated leukocytes were photoactivated using visible light for 20 minutes or 2 J/cm^2 UV-A light, or were not photoactivated, as described in Example 1. 18 hours after photoactivation, or 18 hours after preparation of the cultures which were not photoactivated, leukocyte cultures were harvested, and apoptotic cells were separated from non-apoptotic cells using a FACScan flow cytometer (Becton Dickinson Immunocytometry Systems, San Jose, Calif.). Apoptotic cells were distinguished from non-apoptotic cells based on increased dUTP-FITC incorporation.

normal PBMC = test: Lymphocyte proliferation (3H-TdR incorporation), ConA-stimulated PBMC from normal human subject; assay type: cell-based; settings: Homo sapiens, PBMC, read-out: IC50 of ConA-induced cell proliferation
Excerpt: In two of the types of lymphocytes, the mitogen, ConA, was used to induce proliferation, as described (Fox et al., 1993, Cell. Immunol. 150:45-58). The third type of lymphocytes used in this example proliferated actively in vitro without the need for mitogenic stimulation. The three types of lymphocytes which were used in this example were: PBMC obtained from a normal human subject and stimulated with ConA; PBMC, including malignant CD4+ T-lymphocytes, obtained from a human subject having CTCL and stimulated with ConA; and PBMC obtained from a normal human subject, which PBMC were exposed to Epstein-Barr virus (EBV) after being obtained from the subject, to produce transformed lymphocytes. It is known that EBV-transformed B-lymphocytes proliferate actively in vitro (Polack, 1996, Proc. Natl. Acad. Sci. U.S.A. 93:10411-10416; Longnecker, 1994, Leukemia 8:546-550).
Peripheral blood mononuclear cells (PBMC) were obtained by separating them from whole blood, using Ficoll-Paque separation techniques and media (Boyum, 1964, Nature 793-794). After they were obtained, PBMC were resuspended in RPMI 1640 medium, which comprised 10% (v/v) fetal bovine serum (GIBCO, Grand Island, N.Y.), and were distributed into the wells of 96-well microtiter plates. PBMC transformed using EBV were made as described (Neitzel, 1986, Hum. Gen. 73:320-326)
This stock solution stored at 4° C. in the dark. A stock solution comprising 462.5 μM 8-methoxypsoralen (8-MOP) was prepared in 2% (v/v) benzyl alcohol. 8-MOP was obtained from Sigma (St. Louis, Mo.).
In cultures of transformed leukocytes in which 8-MOP was used, the concentrations of 8-MOP which were used were 92.5 μM, 18.5 μM, 3.7 μM, 0.74 μM, 0.15 μM, and 0.030 μM. Thereafter, ConA was then added to preselected wells to achieve a final concentration of 10 μg/ml of ConA in those wells.
Following preparation of the microtiter culture plates, preselected plates were illuminated with fluorescent visible light for 10-30 minutes, using four fluorescent bulbs (type F15T8CW, TFC Inc., Taiwan) spaced at a distance of 9 cm above the plates. Other preselected plates were illuminated with 0.5-2 Joules per square centimeter UV-A light using a UV-A light box containing 8 UVAR 06-91 bulbs. Still other preselected plates were not exposed to light. The covers of plates which were exposed to light were left in place during illumination.
Following illumination, plates which had been illuminated were placed into a dark incubator which was maintained at 37° C. Non-illuminated plates were placed into the incubator immediately after preparation. All plates were incubated for seventy-two hours. During the final eighteen hours of incubation, tritiated thymidine (^3 H-TdR) was added to each well of each plate. No extraordinary precautions were used to prevent light exposure during the addition of ^3 H-TdR.
Lymphocyte proliferation was assessed by measuring the extent of incorporation of ^3 H-TdR into newly synthesized DNA within the cells at the end of the seventy-two hour incubation period, as described (Fox, 1993, Cell. Immunol. 150:45-58).

[3] = test system: PBMC obtained from a patient having CTCL; test: Induction of apoptosis of CTCL PBMC, TUNEL assay (Example 2); assay type: cell-based, human; settings: for percentage of PBMC which underwent apoptosis: 10 μM hypericin or 100 ng/ml 8-MOP
Protocol: The processing of neoplastic leukocytes, the media and stock solutions used, and the procedures which were used were the same as those presented in Example 1, except as described below.
Cultures were illuminated using fluorescent light for 20 minutes, illuminated with 2 J/cm^2 UV-A light or were not illuminated. After 24 and 48 hours, apoptosis was measured using a TUNEL assay, as described (Sgonc, 1994 Trends Gen. 10:41-42). The TUNEL assay specifically labels free ends of internucleosomally-cleaved DNA--the hallmark of the apoptotic process.

`COc1c2occc2cc2ccc(=O)oc12` [8-MOP, 8-methoxypsoralen] was tested, and the “percentage of PBMC which underwent apoptosis” value (from here on “percentage”) ([1]; 1 μM, UV-A 2 J/cm^2) was 44.0 percentage, the “percentage” value ([1]; 1 μM, no light) was 2.5 percentage and the “percentage” value ([1]; 1 μM, visible light 20 min) was 11.0 percentage. The “percentage” value ([1]; 10 μM, UV-A 2 J/cm^2) was 74.3 percentage, the “percentage” value ([1]; 10 μM, no light) was 2.4 percentage and the “percentage” value ([1]; 10 μM, visible light 20 min) was 12.2 percentage. The “selectivity of apoptosis induction, malignant vs normal leukocytes” value ([1]; UV-A light) was “the magnitude of the selective effect was much smaller”, the “capability of inducing apoptosis” value ([1]; UV-A light) was “capable of inducing apoptosis in malignant leukocytes” and the “capability of inducing apoptosis” value ([1]; visible light) was “not 8-MOP, is capable of inducing apoptosis in both normal and malignant leukocytes”. For the same compound, the “percentage” value ([2]; 1 μM, UV-A 2 J/cm^2) was 22.9 percentage, the “percentage” value ([2]; 1 μM, no light) was 3.8 percentage and the “percentage” value ([2]; 1 μM, visible light 20 min) was 13.7 percentage. For the same compound, the “percentage” value ([2]; 10 μM, UV-A 2 J/cm^2) was 63.0 percentage, the “percentage” value ([2]; 10 μM, no light) was 6.8 percentage and the “percentage” value ([2]; 10 μM, visible light 20 min) was 15.3 percentage. For the same compound, the “capability of inducing apoptosis” value ([2]; normal leukocytes, visible light) was “not 8-MOP, is capable of inducing apoptosis in both normal and malignant leukocytes”, the “induction of apoptosis (flow cytometry, FIG. 8)” value (from here on “induction of apoptosis”) (malignant leukocytes; UV-A 2 J/cm^2) was “induced apoptosis in most cells” and the “induction of apoptosis” value (malignant leukocytes; no photoactivation) was “neither hypericin nor 8-MOP induced significant apoptosis”. The “induction of apoptosis” value (malignant leukocytes; visible light 20 min) was “induced apoptosis in only a limited number of cells”, the IC50 (normal PBMC; 10 min, visible light, 10 min) was 33.5 µM and the IC50 (normal PBMC; 20 min, visible light, 20 min) was 33.5 µM. The IC50 (normal PBMC; 0.5 h, visible light, 30 min) was 33.5 µM, the IC50 (normal PBMC; UV-A, 0.5 J/sc) was 0.96 µM and the IC50 (normal PBMC; UV-A, 1 J/sc) was 0.17 µM. The IC50 (normal PBMC; UV-A, 2 J/sc) was 0.15 µM, the IC50 (normal PBMC; not illuminated, benzyl alcohol vehicle itself inhibitory at highest concentrations) was 33.5 µM and the “percentage” value ([3]; 24 h, UV-A 2 J/cm^2) was 87 percentage. The “percentage” value ([3]; 24 h, no light) was 11.5 percentage, the “percentage” value ([3]; 24 h, visible light 20 min) was 32 percentage and the “percentage” value ([3]; 48 h, UV-A 2 J/cm^2) was 94 percentage. For the same compound, the “percentage” value ([3]; 48 h, no light) was 21 percentage, the “percentage” value ([3]; 48 h, visible light 20 min) was 48 percentage and the “potency as inducer of apoptosis, hypericin vs 8-MOP” value ([3]; UV-A light) was “approximately equally potent inducers of apoptosis of malignant leukocytes”.
